From article PMC8965563, “PaP1, a Broad-Spectrum Lysin-Derived Cationic Peptide to Treat Polymicrobial Skin Infections” (Frontiers in Microbiology, 2022)
Like-named read-outs stand apart in the source and are kept apart here.

Key:
[1] = tested on: P. aeruginosa strain PAO1; conditions: 20 mM Tris–HCl, pH 7.2, 1 h, 37°C, log-phase bacteria ~10^5–10^6 CFU/ml, limit of detection 10 CFU/ml, triplicate experiments
[2] = tested on: S. aureus strain NRS384 (MRSA); experiment: Murine burn wound infection model, prophylactic; format: in vivo, Staphylococcus aureus; conditions: monotherapy: 1% (wt/vol) PaP1, or 0.02% or 0.2% (wt/vol) mupirocin, topical in diH2O, 1 h before and 2 h after infection with 10^6 CFU; female CD1 mice, third-degree burns; counts 3 h post-infection; control ~10^6 CFU/g tissue; geometric mean
[3] = peptide 10 μg/ml, serial dilution and plating

Molecule | reduction of bacterial viability (log10-fold kill) [1, 3] | reduction of bacterial viability (log10-fold kill) ([1]; peptide 5 μg/ml, plating) | reduction of MRSA viability vs untreated control [2]
QYCANDRVGNLWVEAQEGRKPLRSSAKFKGGAQRRSGLA [PaP1-6] | retains bactericidal activity |  | 
NAGDYAGAAEQFLRWNKAGGKVLPGLVRRRK [PaP1-3] | below the limit of detection | 2.4 log10-fold | 
NAGDYAGAAEQFLRWNKAGGKVLPGLVRRRA [PaP1-2] | 1.2 log10-fold |  | 
C/C(=C\C(=O)OCCCCCCCCC(=O)O)C[C@@H]1OC[C@H](C[C@@H]2O[C@H]2[C@@H](C)[C@H](C)O)[C@@H](O)[C@H]1O [mupirocin] |  |  | 1.1–1.2 log10-fold
NAGDYAGAAEQFLRWNKAGGKVLPGLVRRRASERELFLGAA [PaP1-1] | ineffective | ineffective | 
